{"source": "paper PMC2074382", "about": "(British Journal of Cancer, 1996)", "key": {"solid tumour": {"tested_on": "solid tumour", "assay": "Tumour response (WHO criteria) in phase I study", "assay_type": "in vivo, human", "from_the_text": "British Journal of Cancer (1996) 73, 744-750 O (C? 1996 Stockton Press All rights reserved 0007-0920/96 $12.00 Phase I and pharmacological study of the new topoisomerase I inhibitor G1147211, using a daily x 5 intravenous administration CJH Gerrits', GJ Creemers', JHM Schellens', P Wissel2, AS Th Planting', R Kunka2, K Selinger2, M de Boer-Dennert', Y Marijnen3, M Harteveld' and J Verweijl 'Department of Medical Oncology, Rotterdam Cancer Institute, Rotterdam, The Netherlands; 2Glaxo Wellcome Inc, Department of Clinical Pharmacology, NC, USA; 3Glaxo Wellcome Inc, Department of Clinical Research, Zeist, The Netherlands. Summary Topoisomerase I inhibitors are interesting anti-cancer agents with a novel mechanism of action. […] In subsequent patient cohorts the dose was escalated from 0.3 to 1.5 mg m-2 day-'. Pharmacokinetics analysis was performed on days 1 and 4 of the first course using a validated high- performance liquid chromatographic assay and non-compartmental methods. […] Its further development was stopped because of unpredictable and severe myelosuppression, gastrointestinal toxicity and haemorrhagic cystitis. In the late 1980s two discoveries brought about a renewal of interest in CPT; firstly, topoisomerase I was identified as the single cellular target of CPT (Hsiang et al., 1985; Hsiang and Liu, 1988) and, secondly, an overexpression of topoisomerase I was found in various tumour cell lines but not in normal tissues (Giovanella et al., 1989; Hirabayaski et al., 1992; Potmesil et al., 1988). Topoisomerase I is a nuclear enzyme that resolves topological problems of the torsionally strained (supercoiled) DNA (Slichenmyer et al., 1993). This is achieved by forming a covalent adduct between topoisome- rase I and the DNA, termed the cleavable complex. This catalytic intermediate creates single-strand DNA breaks, allowing the DNA molecule to rotate around the intact DNA strand at the cleavage site, leading to a relaxation of the DNA molecule and in this way replication, transcription and other DNA functions can proceed. These enzyme- bridged breaks are then resealed by topoisomerase I. CPT stabilises the cleavable complexes, thereby preventing resealing of single-strand DNA breaks in the presence of the drug (Covey et al., 1989; D'Arpa and Liu, 1989; Eng et al., 1988). Cytotoxicity is specific to the S-phase of the cell cycle because the double-strand breaks that occur during this phase are more difficult to repair in the presence of the drug (Horwitz and Horwitz, 1973). […]"}, "mice": {"tested_on": "mice", "details": "by rough estimate; cited from earlier work"}, "[1]": {"tested_on": "HT-29 and SW-48 colon, PC-3 prostate, MX-1 breast, H460 lung, SKOV3 ovarian and KB epidermoid carcinomas xenografts", "details": "HT-29, SW-48, PC-3, MX-1, H460, SKOV3, KB; ref Emerson et al., 1993, 1994, 1995; cited from earlier work"}, "bone marrow cultures": {"tested_on": "bone marrow cultures", "details": "ref Emerson et al., 1995; cited from earlier work"}}, "note": "Counter-ions that a name gives are not always drawn.", "data": [{"smiles": "CC[C@@]1(O)C(=O)OCc2c1cc1n(c2=O)Cc2c-1nc1cc3c(cc1c2CN1CCN(C)CC1)OCCO3", "note": "[GI147211, [7 - (methylpiperazinomethylene) - 10,11 - ethylene-dioxy-20(S)] camptothecin dihydrochloride]", "values": [{"measurement": "stable disease, patients", "setting": "solid tumour; 18 evaluable patients", "value": "ten"}, {"measurement": "response in leiomyosarcoma patient", "setting": "solid tumour; liver metastasis of leiomyosarcoma of the stomach, after two courses", "value": "minor response"}, {"measurement": "partial response, patients", "setting": "solid tumour; metastatic colorectal cancer resistant to 5-FU/folinic acid, 18 evaluable patients", "value": "One"}, {"measurement": "duration of remission", "setting": "solid tumour; partial response, colorectal cancer", "value": 6, "unit": "weeks"}, {"measurement": "murine LD10 compared with topotecan", "setting": "mice", "value": "equivalent to topotecan"}, {"measurement": "cytotoxicity against xenografts of human cancers", "setting": "[1]", "value": "cytotoxicity against several xenografts of human cancers"}, {"measurement": "myelotoxicity compared with topotecan", "setting": "bone marrow cultures", "value": "more myelotoxic than topotecan"}]}]}
